Laboratory results from ChEMBL document CHEMBL3885861, “Open TG-GATES”.

Organism: Rattus norvegicus
Assay: Open TG-GATES - Regimen: Single
Assay type: toxicity, organism-based, Sprague-Dawley
Set-up: regimen Single, gender Male, age 6 weeks
Conditions: in vivo, po, route gavage; for Bas / Eos / Fbg / Hb / Ht / Lym / MCHC / MCV / Mono / Neu / PT / Plat / RBC / Ret / WBC / APTT: tissue Blood; for KIDNEY_L / KIDNEY_R / KIDNEY_TOTAL: tissue Kidney; for LIVER: tissue Liver; for ALP / ALT / AST / BUN / CRE / Ca / Cl / DBIL / GLC / IP / K / LDH / Na / PL / RALB / TBIL / TG / TP / gamma-GTP / TC: tissue Plasma
[1] = 300 mg/kg, 3 h, dose level Middle
[2] = 300 mg/kg, 6 h, dose level Middle
[3] = 300 mg/kg, 9 h, dose level Middle
[4] = 300 mg/kg, 24 h, dose level Middle
[5] = 1000 mg/kg, 3 h, dose level High
[6] = 1000 mg/kg, 6 h, dose level High
[7] = 1000 mg/kg, 9 h, dose level High
[8] = 1000 mg/kg, 24 h, dose level High

CN(C)C(=N)N=C(N)N [METFORMIN]
Bas [1]: 0%
Eos [1]: 1%
Fbg [1]: 256.8 mg/dL
Hb [1]: 12.8 g/dL
Ht [1]: 39.1%
Lym [1]: 72.6%
MCHC [1]: 32.9%
MCV [1]: 64.2 fL
Mono [1]: 2.8%
Neu [1]: 23.2%
PT [1]: 12.3 s
Plat [1]: 125.2 x10_4/uL
RBC [1]: 612.2 x10_4/ul
Ret [1]: 10.1%
WBC [1]: 96 x10_2/uL
KIDNEY_L [1]: 0.9 g
KIDNEY_R [1]: 0.9 g
KIDNEY_TOTAL [1]: 1.7 g
LIVER [1]: 8.1 g
ALP [1]: 1196.4 IU/L
ALT [1]: 58 IU/L
AST [1]: 77.2 IU/L
BUN [1]: 8.8 mg/dL
CRE [1]: 0.2 mg/dL
Ca [1]: 11.1 mg/dL
Cl [1]: 106.2 meq/L
DBIL [1]: 0.01 mg/dL
GLC [1]: 156.2 mg/dL
IP [1]: 9 mg/dL
K [1]: 3.8 meq/L
LDH [1]: 65 IU/L
Na [1]: 140.6 meq/L
PL [1]: 132.2 mg/dL
RALB [1]: 2.5 g/dL
TBIL [1]: 0.038 mg/dL
TG [1]: 46.2 mg/dL
TP [1]: 5.2 g/dL
gamma-GTP [1]: 1.2 IU/L
TERMINAL_BW [2]: 200 g
APTT [2]: 16.3 s
Bas [2]: 0.2%
Eos [2]: 1%
Fbg [2]: 254 mg/dL
Hb [2]: 12.8 g/dL
Ht [2]: 38.1%
Lym [2]: 75.6%
MCHC [2]: 33.6%
MCV [2]: 63 fL
Mono [2]: 3%
Neu [2]: 20.2%
PT [2]: 12.5 s
Plat [2]: 113.5 x10_4/uL
RBC [2]: 604.4 x10_4/ul
Ret [2]: 9.6%
WBC [2]: 95.4 x10_2/uL
KIDNEY_L [2]: 0.9 g
KIDNEY_R [2]: 0.9 g
KIDNEY_TOTAL [2]: 1.7 g
LIVER [2]: 7.3 g
ALP [2]: 1116.6 IU/L
ALT [2]: 85 IU/L
AST [2]: 85.6 IU/L
BUN [2]: 8.4 mg/dL
CRE [2]: 0.2 mg/dL
Ca [2]: 11 mg/dL
Cl [2]: 105.6 meq/L
DBIL [2]: 0.004 mg/dL
GLC [2]: 153.4 mg/dL
IP [2]: 10.3 mg/dL
K [2]: 4.1 meq/L
LDH [2]: 51.8 IU/L
Na [2]: 140 meq/L
PL [2]: 126 mg/dL
RALB [2]: 2.5 g/dL
TBIL [2]: 0.04 mg/dL
TG [2]: 28.2 mg/dL
TP [2]: 5.1 g/dL
gamma-GTP [2]: 1 IU/L
TERMINAL_BW [3]: 199.7 g
APTT [3]: 15.9 s
Bas [3]: 0%
Eos [3]: 1%
Fbg [3]: 250.2 mg/dL
Hb [3]: 12.8 g/dL
Ht [3]: 38.2%
Lym [3]: 75%
MCHC [3]: 33.6%
MCV [3]: 64.1 fL
Mono [3]: 2.6%
Neu [3]: 20.4%
PT [3]: 12.4 s
Plat [3]: 111.7 x10_4/uL
RBC [3]: 595.8 x10_4/ul
Ret [3]: 10.1%
WBC [3]: 82.7 x10_2/uL
KIDNEY_L [3]: 0.8 g
KIDNEY_R [3]: 0.9 g
KIDNEY_TOTAL [3]: 1.7 g
LIVER [3]: 6.8 g
ALP [3]: 1220.2 IU/L
ALT [3]: 61.2 IU/L
AST [3]: 75.6 IU/L
BUN [3]: 9 mg/dL
CRE [3]: 0.1 mg/dL
Ca [3]: 10.7 mg/dL
Cl [3]: 106.6 meq/L
DBIL [3]: 0.008 mg/dL
GLC [3]: 162.6 mg/dL
IP [3]: 10.2 mg/dL
K [3]: 4 meq/L
LDH [3]: 52.2 IU/L
Na [3]: 140.8 meq/L
PL [3]: 126.6 mg/dL
RALB [3]: 2.5 g/dL
TBIL [3]: 0.042 mg/dL
TG [3]: 26.2 mg/dL
TP [3]: 5 g/dL
gamma-GTP [3]: 1.4 IU/L
TERMINAL_BW [4]: 208.8 g
APTT [4]: 16.1 s
Bas [4]: 0%
Eos [4]: 0.8%
Fbg [4]: 235.6 mg/dL
Hb [4]: 13.2 g/dL
Ht [4]: 39.1%
Lym [4]: 75.2%
MCHC [4]: 33.8%
MCV [4]: 63.3 fL
Mono [4]: 3%
Neu [4]: 20.6%
PT [4]: 12.5 s
Plat [4]: 112.7 x10_4/uL
RBC [4]: 617.8 x10_4/ul
Ret [4]: 9.3%
WBC [4]: 73.1 x10_2/uL
KIDNEY_L [4]: 0.9 g
KIDNEY_R [4]: 0.9 g
KIDNEY_TOTAL [4]: 1.8 g
LIVER [4]: 9.7 g
ALP [4]: 1591.2 IU/L
ALT [4]: 52.4 IU/L
AST [4]: 77.8 IU/L
BUN [4]: 15.2 mg/dL
CRE [4]: 0.2 mg/dL
Ca [4]: 11.2 mg/dL
Cl [4]: 104.6 meq/L
DBIL [4]: 0.014 mg/dL
GLC [4]: 178 mg/dL
IP [4]: 8.9 mg/dL
K [4]: 4.1 meq/L
LDH [4]: 80 IU/L
Na [4]: 141.4 meq/L
PL [4]: 146.6 mg/dL
RALB [4]: 2.5 g/dL
TBIL [4]: 0.03 mg/dL
TC [4]: 83.4 mg/dL
TG [4]: 87 mg/dL
TP [4]: 5.4 g/dL
gamma-GTP [4]: 1 IU/L
TERMINAL_BW [5]: 201 g
APTT [5]: 16.6 s
Bas [5]: 0.2%
Eos [5]: 1%
Fbg [5]: 250.4 mg/dL
Hb [5]: 13.4 g/dL
Ht [5]: 40.4%
Lym [5]: 78.6%
MCHC [5]: 33.1%
MCV [5]: 64 fL
Mono [5]: 4.2%
Neu [5]: 15.2%
PT [5]: 12.2 s
Plat [5]: 118.4 x10_4/uL
RBC [5]: 631.8 x10_4/ul
Ret [5]: 9.7%
WBC [5]: 85.9 x10_2/uL
KIDNEY_L [5]: 0.9 g
KIDNEY_R [5]: 0.9 g
KIDNEY_TOTAL [5]: 1.8 g
LIVER [5]: 8.2 g
ALP [5]: 1303.6 IU/L
ALT [5]: 60.8 IU/L
AST [5]: 79.2 IU/L
BUN [5]: 8.8 mg/dL
CRE [5]: 0.2 mg/dL
Ca [5]: 11.1 mg/dL
Cl [5]: 106.6 meq/L
DBIL [5]: 0.008 mg/dL
GLC [5]: 149 mg/dL
IP [5]: 9.3 mg/dL
K [5]: 3.8 meq/L
LDH [5]: 63 IU/L
Na [5]: 141.4 meq/L
PL [5]: 130.2 mg/dL
RALB [5]: 2.6 g/dL
TBIL [5]: 0.038 mg/dL
TG [5]: 47 mg/dL
TP [5]: 5.4 g/dL
gamma-GTP [5]: 1 IU/L
TERMINAL_BW [6]: 201.2 g
APTT [6]: 17.8 s
Bas [6]: 0%
Eos [6]: 1%
Fbg [6]: 259.6 mg/dL
Hb [6]: 13 g/dL
Ht [6]: 39%
Lym [6]: 72.4%
MCHC [6]: 33.2%
MCV [6]: 64.7 fL
Mono [6]: 3.4%
Neu [6]: 22.4%
PT [6]: 12.3 s
Plat [6]: 118.4 x10_4/uL
RBC [6]: 602.6 x10_4/ul
Ret [6]: 9.9%
WBC [6]: 87.3 x10_2/uL
KIDNEY_L [6]: 0.8 g
KIDNEY_R [6]: 0.8 g
KIDNEY_TOTAL [6]: 1.7 g
LIVER [6]: 7.3 g
ALP [6]: 996 IU/L
ALT [6]: 104.2 IU/L
AST [6]: 88.4 IU/L
BUN [6]: 9.2 mg/dL
CRE [6]: 0.1 mg/dL
Ca [6]: 11.1 mg/dL
Cl [6]: 106.2 meq/L
DBIL [6]: 0.004 mg/dL
GLC [6]: 137 mg/dL
IP [6]: 10 mg/dL
K [6]: 3.7 meq/L
LDH [6]: 52 IU/L
Na [6]: 140.8 meq/L
PL [6]: 143.4 mg/dL
RALB [6]: 2.5 g/dL
TBIL [6]: 0.05 mg/dL
TC [6]: 86.2 mg/dL
TG [6]: 20.6 mg/dL
TP [6]: 5.2 g/dL
gamma-GTP [6]: 1 IU/L
TERMINAL_BW [7]: 199.9 g
APTT [7]: 16.4 s
Bas [7]: 0.2%
Eos [7]: 1%
Fbg [7]: 251.6 mg/dL
Hb [7]: 13 g/dL
Ht [7]: 38.9%
Lym [7]: 77%
MCHC [7]: 33.2%
MCV [7]: 65.9 fL
Mono [7]: 3%
Neu [7]: 18.6%
PT [7]: 12.5 s
Plat [7]: 112.8 x10_4/uL
RBC [7]: 591.6 x10_4/ul
Ret [7]: 10.3%
WBC [7]: 89.9 x10_2/uL
KIDNEY_L [7]: 0.8 g
KIDNEY_R [7]: 0.8 g
KIDNEY_TOTAL [7]: 1.7 g
LIVER [7]: 6.8 g
ALP [7]: 1282.4 IU/L
ALT [7]: 84.4 IU/L
AST [7]: 83.2 IU/L
BUN [7]: 10 mg/dL
CRE [7]: 0.1 mg/dL
Ca [7]: 10.9 mg/dL
Cl [7]: 107.4 meq/L
DBIL [7]: 0.008 mg/dL
GLC [7]: 113.8 mg/dL
IP [7]: 10.6 mg/dL
K [7]: 3.7 meq/L
LDH [7]: 46 IU/L
Na [7]: 142.2 meq/L
PL [7]: 138.6 mg/dL
RALB [7]: 2.5 g/dL
TBIL [7]: 0.042 mg/dL
TG [7]: 20.6 mg/dL
TP [7]: 5.1 g/dL
gamma-GTP [7]: 1.2 IU/L
TERMINAL_BW [8]: 202.6 g
APTT [8]: 15.2 s
Bas [8]: 0%
Eos [8]: 1%
Fbg [8]: 244.6 mg/dL
Hb [8]: 12.8 g/dL
Ht [8]: 38.3%
Lym [8]: 76.2%
MCHC [8]: 33.5%
MCV [8]: 64.5 fL
Mono [8]: 3.6%
Neu [8]: 18.6%
PT [8]: 12.6 s
Plat [8]: 114.2 x10_4/uL
RBC [8]: 593.4 x10_4/ul
Ret [8]: 9.4%
WBC [8]: 98.2 x10_2/uL
KIDNEY_L [8]: 0.9 g
KIDNEY_R [8]: 0.9 g
KIDNEY_TOTAL [8]: 1.8 g
LIVER [8]: 8.8 g
ALP [8]: 1502.2 IU/L
ALT [8]: 42.6 IU/L
AST [8]: 74.6 IU/L
BUN [8]: 15.4 mg/dL
CRE [8]: 0.2 mg/dL
Ca [8]: 11.3 mg/dL
Cl [8]: 104.2 meq/L
DBIL [8]: 0.012 mg/dL
GLC [8]: 182.4 mg/dL
IP [8]: 8.8 mg/dL
K [8]: 4.3 meq/L
LDH [8]: 57 IU/L
Na [8]: 140.8 meq/L
PL [8]: 135.4 mg/dL
RALB [8]: 2.5 g/dL
TBIL [8]: 0.038 mg/dL
TG [8]: 53.2 mg/dL
TP [8]: 5.4 g/dL
gamma-GTP [8]: 1 IU/L
